Assay results taken from patent US5466809A (Toronto Research Chemicals, Inc., priority 1994, dated 1995).
Converted amounts (≈) assume the structure as drawn. “And” between values parts separate entries of the source, which are not always exact repeats. Identical values can stand only once. Like-named read-outs stand apart in the source and are kept apart here.

Legend:
bone marrow cells [1] = assay: In vivo bone marrow CFU formation and bone marrow cellularity, dose dependent effect; design: species or system C57BL/6 mice; conditions: for optimal dose / Effect on bone marrow cellularity and CFU formation compared with swainsonine (summary) / Effect on bone marrow cellularity and CFU formation (summary): summary of experiments; for Effect on bone marrow cellularity and CFU formation compared with swainsonine (summary): for 3 and 23 versus 10 μg swainsonine; for Mean of CFU Formation / Mean of Cellularity: 4 days
Description: (§1) Assay for Bone Marrow Cell Proliferation Induced by Swansonine Analogues. Pathogen-free C57BL/6 mice at 8-14 weeks of age were quarantined for one week prior to their use in the experiments described below. Mice were inoculated intraperitoneally twice daily with a designated dose of swainsonine or an analogue of swainsonine for a period of four days. Eighteen hours following the last injection, the mice were sacrificed, bone marrow cells were obtained using standard technology (S. C. White et al., J. Natl. Cancer Inst. 83 1125, 1991). Cellularity of the bone marrow cells so obtained was determined by directly counting the cells after they were flushed from the femurs and tibia of the mice. The cells were processed according to the procedure described in the GIBCO-BRL Mouse Bone Stem Cell Proliferation Kit, and the number of colony forming units (CFU) was assessed using the procedures also described in the kit. For kinetic experiments, mice were administered 10 ug of the analogue (this was the optimum dose in all cases) twice daily for the designated number of days. The experiments were designed so that all regimens terminated on the same day. Eighteen hours after the last injection, the mice were sacrificed and bone marrow cells were obtained and processed as described above.

[2] = target: T1, Jack Bean alpha-mannosidase (Canavalia ensiformis, UniProt C0HJB3); assay: Jack Bean alpha-mannosidase assay; type: biochemical; conditions: pH 6.0, 37° C., 30 minutes, p-nitrophenyl-alpha-D-mannopyranoside substrate; read-out: D50 Values (Inhibition), J.B. mannosidase (converted)
T1 sequence (C0HJB3 1-981): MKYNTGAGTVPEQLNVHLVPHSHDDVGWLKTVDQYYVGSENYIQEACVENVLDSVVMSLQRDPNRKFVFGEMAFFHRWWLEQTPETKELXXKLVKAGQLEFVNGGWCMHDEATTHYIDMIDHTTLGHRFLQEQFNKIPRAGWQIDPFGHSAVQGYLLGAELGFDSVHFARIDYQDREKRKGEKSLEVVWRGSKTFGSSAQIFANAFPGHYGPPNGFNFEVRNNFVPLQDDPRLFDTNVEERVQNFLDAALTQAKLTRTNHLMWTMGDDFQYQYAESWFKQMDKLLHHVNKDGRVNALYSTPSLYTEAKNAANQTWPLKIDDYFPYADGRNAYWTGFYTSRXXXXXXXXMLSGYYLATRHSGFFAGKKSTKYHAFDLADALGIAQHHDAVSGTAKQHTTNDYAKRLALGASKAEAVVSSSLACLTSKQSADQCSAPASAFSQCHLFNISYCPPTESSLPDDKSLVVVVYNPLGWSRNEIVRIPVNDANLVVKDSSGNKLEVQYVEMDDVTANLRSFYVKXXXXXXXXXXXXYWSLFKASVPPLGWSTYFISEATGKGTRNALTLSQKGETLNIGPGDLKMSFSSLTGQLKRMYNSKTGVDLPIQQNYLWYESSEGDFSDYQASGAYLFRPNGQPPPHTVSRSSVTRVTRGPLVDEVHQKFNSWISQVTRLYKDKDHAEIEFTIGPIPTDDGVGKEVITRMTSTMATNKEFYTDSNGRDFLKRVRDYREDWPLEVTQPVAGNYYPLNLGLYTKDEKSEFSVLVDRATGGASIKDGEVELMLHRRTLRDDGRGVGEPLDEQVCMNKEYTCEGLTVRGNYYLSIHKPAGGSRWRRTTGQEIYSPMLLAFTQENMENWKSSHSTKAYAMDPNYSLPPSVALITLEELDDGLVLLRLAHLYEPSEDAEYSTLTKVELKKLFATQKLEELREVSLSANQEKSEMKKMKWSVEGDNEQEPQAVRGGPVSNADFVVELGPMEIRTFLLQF
Protocol: Jack Bean alpha-Mannosidase Assay. […] A volume (37.5 ul) of 0.05M sodium acetate (pH 6.0) was added to each well, followed by 37.5 ul of 0.01M p-nitrophenyl-alpha-D-mannopyanoside, and then 10 ul of a 1:400 dilution of Jack Bean alpha-mannosidase. After thoroughly shaking to mix, the mixture was incubated at 37° C. for 30 minutes. The reaction was stopped by the addition of 150 ul of 0.5M sodium carbonate (pH 10.0). The absorbance at 405 nm of the solution in the wells was determined in an ELISA plate reader.

[3] = tested on: N-linked oligosaccharide processing; assay: L-PHA lectin sensitivity assay for inhibition of N-linked oligosaccharide processing; type: cell-based
Protocol: This test also indicates whether the compounds enter tumor cells and measures the degree of toxicity of the compounds for cells. The test is described in J. W. Dennis, Cancer Research 46:5131, 1986.
Essentially, 2×10^4 cells are placed in individual wells of a 96-well microtest plate, wherein the wells contain serial dilutions of the compounds to be tested. […] […] The cells are then harvested and the amount of radioactivity incorporated into the host cell DNA is measured in a liquid scintillation counter. The amount of radioactivity present in cells in wells in the absence of L-PHA reflects the toxicity of the test compound and the amount of radioactivity present in the presence of L-PHA reflects the level of inhibition of oligosaccharide processing induced by the test compound.

bone marrow cells [4] = assay: In vivo bone marrow CFU formation and cellularity, time course (kinetic experiments); design: species or system C57BL/6 mice; conditions: 10 μg twice daily i.p.
Description: as §1

[5] = L-PHA assay, 3H-thymidine incorporation, read-out: D50 Values (Inhibition), L-PHA assay
[6] = Expt. 1, 10 μg twice daily i.p.
[7] = Expt. 1, 20 μg twice daily i.p.
[8] = Expt. 2, 10 μg twice daily i.p.
[9] = Expt. 1, 40 μg twice daily i.p.

| Compound | Effect on bone marrow cellularity and CFU formation compared with swainsonine (summary) (bone marrow cells [1]) | IC50 [2] [µM] | IC50 [3, 5] [µg/mL] | Mean of CFU Formation (bone marrow cells [1]; Expt. 1, 5 μg twice daily i.p.) [CFU] | Mean of Cellularity (bone marrow cells [1]; Expt. 1, 5 μg twice daily i.p.) | Mean of CFU Formation (bone marrow cells [1]; [6]) | Mean of Cellularity (bone marrow cells [1]; [6]) | Mean of CFU Formation (bone marrow cells [1]; [7]) [CFU] | Mean of Cellularity (bone marrow cells [1]; [7]) | Effect on bone marrow cellularity and CFU formation (summary) (bone marrow cells [1]) | further results |
| --- | --- | --- | --- | --- | --- | --- | --- | --- | --- | --- | --- |
| CCOC1CC(=O)N2C[C@@H](O)[C@@H](O)[C@H]2[C@@H]1O (stereo partly drawn) [Compound 23, 7-ethoxy-(1S,2R,8R,8aR)-1,2,8-trihydroxy-octahydro-5-oxyindolizine] | comparable to | 43.2 | > 1 |  |  |  |  |  |  |  | optimal dose (bone marrow cells [1]): 10 µg |
| Cc1ccc(C(=O)O[C@@H]2CN3CCC[C@@H](O)[C@@H]3[C@@H]2O)cc1 [Compound 41, 1S-8a-β-2-alpha-p-toluoyloxyoctahydroindolizine-1-alpha-8-β-diol] |  | 343 | 1 (≈ 3.43 µM) | 195 | 2.22 × 10^7 | 359 CFU | 2.99 × 10^7 | 214 | 2.14 × 10^7 | Stimulates CFU & cellularity |  |
| O=C1N[C@@H]2[C@@H](O)[C@@H](O)[C@H](O)[C@@H](CO)N2C1=O [Kefunensine, reference compound] |  | 151 | 1 (≈ 4.31 µM) |  |  |  |  |  |  |  |  |
| O=C(O[C@@H]1CN2CCC[C@@H](O)[C@@H]2[C@@H]1O)c1ccc([N+](=O)[O-])cc1 [Compound 42, 1S-8a-β-2-alpha-p-nitorbenzoyloxyoctahydroindolizine-1-alpha-8-β-diol] |  | 109 | 0.066 (≈ 0.205 µM) | 213 | 2.68 × 10^7 | 373 CFU | 3.21 × 10^7 | 242 | 2.63 × 10^7 | Stimulates CFU & cellularity |  |
| O[C@H]1[C@H]2[C@H](O)CCCN2C[C@H]1O [swainsonine, 1S-8a-β-octahydroindolizine-1-alpha-2-alpha-8-β-triol, reference compound] |  |  | 0.033 (≈ 0.191 µM) |  |  | 550 CFU and 446 CFU | 5.86 × 10^7 and 3.73 × 10^7 |  |  |  | Mean of Cellularity (bone marrow cells [1]; [8]): 5.76 × 10^7; IC50 ([3]; 30 ug/ml L-PHA, read-out: I50): ~0.02 µg/mL and ~100 nM |
| CCCC(=O)O[C@@H]1CN2CCC[C@@H](O)[C@@H]2[C@@H]1O [Compound 3, 1S-8a-β-2-alpha-butanoyloxyoctahydroindolizine-1-alpha-8-β-diol] | comparable to | 144 | 0.066 (≈ 0.271 µM) |  |  |  |  |  |  |  | optimal dose (bone marrow cells [1]): 10 µg; amount of radioactivity incorporated by cells ([3]; 3H-thymidine incorporation, compared with swainsonine): comparable to that of swainsonine |
| O[C@@H]1[C@H](O)[C@H](O)CN2C[C@@H](O)[C@@H](O)[C@@H]12 [Compound 36, 1S-1-alpha-2-alpha-6β,7β-8β-pentahydroxy-8a-β-octahydroindolizine] |  |  |  | 291 | 2.28 × 10^7 | 545 CFU | 5.27 × 10^7 | 327 | 2.59 × 10^7 |  |  |
| O=C(O[C@@H]1CN2CCC[C@@H](O)[C@@H]2[C@@H]1O)c1ccccc1 [Compound 5, 1S-8a-β-2-alpha-benzoyloxyoctahydroindolizine-1-alpha-8-β-diol] |  | 252 | 0.5 (≈ 1.8 µM) | 200 | 2.91 × 10^7 | 324 CFU | 5.76 × 10^7 | 293 | 3.07 × 10^7 | Stimulates CFU & cellularity | Mean of CFU Formation (bone marrow cells [1]; [9]): 287 CFU; Mean of Cellularity (bone marrow cells [1]; [9]): 3.07 × 10^7; Mean of Cellularity (bone marrow cells [1]; Expt. 2, 5 μg twice daily i.p.): 3.33 × 10^7; Mean of Cellularity (bone marrow cells [1]; [8]): 4.76 × 10^7; Mean of Cellularity (bone marrow cells [1]; Expt. 2, 20 μg twice daily i.p.): 3.38 × 10^7; Mean of CFU Formation (bone marrow cells [4]; 1 day): 250 CFU; Mean of Cellularity (bone marrow cells [4]; 1 day): 3.00 × 10^7; Mean of CFU Formation (bone marrow cells [4]; 2 days): 436 CFU; Mean of Cellularity (bone marrow cells [4]; 2 days): 4.18 × 10^7; Mean of CFU Formation (bone marrow cells [4]; 3 days): 568 CFU; Mean of Cellularity (bone marrow cells [4]; 3 days): 5.59 × 10^7; Mean of CFU Formation (bone marrow cells [4]; 4 days): 623 CFU; Mean of Cellularity (bone marrow cells [4]; 4 days): 7.42 × 10^7; Mean of CFU Formation (bone marrow cells [4]; 5 days): 621 CFU; Mean of Cellularity (bone marrow cells [4]; 5 days): 6.88 × 10^7; Mean of CFU Formation (bone marrow cells [4]; 6 days): 518 CFU; Mean of Cellularity (bone marrow cells [4]; 6 days): 5.24 × 10^7 |
| CCCCCCCC(=O)O[C@@H]1CN2CCC[C@@H](O)[C@@H]2[C@@H]1O [Compound 6, 1S-8a-β-2-alpha-octanoyloxyoctahydroindolizine-1-alpha-8-β-diol] | not approximating swainsonine | 117 | 0.066 (≈ 0.22 µM) | 200 | 2.57 × 10^7 | 437 CFU | 3.83 × 10^7 | 295 | 2.73 × 10^7 | Stimulates CFU and cellularity | Mean of CFU Formation (bone marrow cells [4]; 1 day): 250 CFU; Mean of Cellularity (bone marrow cells [4]; 1 day): 3.56 × 10^7; Mean of CFU Formation (bone marrow cells [4]; 2 days): 432 CFU; Mean of Cellularity (bone marrow cells [4]; 2 days): 4.63 × 10^7; Mean of CFU Formation (bone marrow cells [4]; 3 days): 550 CFU; Mean of Cellularity (bone marrow cells [4]; 3 days): 5.88 × 10^7; Mean of CFU Formation (bone marrow cells [4]; 4 days): 618 CFU; Mean of Cellularity (bone marrow cells [4]; 4 days): 7.63 × 10^7; Mean of CFU Formation (bone marrow cells [4]; 5 days): 614 CFU; Mean of Cellularity (bone marrow cells [4]; 5 days): 6.25 × 10^7; Mean of CFU Formation (bone marrow cells [4]; 6 days): 488 CFU; Mean of Cellularity (bone marrow cells [4]; 6 days): 5.38 × 10^7 |
